Data published in patent US20260176289A1, “SMALL MOLECULE INHIBITORS OF KRAS PROTEINS” (Merck Sharp & Dohme LLC, priority 2022, published 2026).
Where two headings read alike, the source gives them in different places.

Experiments:
KRAS-G12V = KRAS-G12V (Homo sapiens, UniProt P01116, G12V); assay: SOS-catalyzed nucleotide exchange assay (Procedure A, TR-FRET), KRAS-G12V; assay type: biochemical
In short: (§1)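 RAS (G12C carries C51S/C80L/C118S) loaded with Bodipy-GDP, complexed with Tb-streptavidin; cpd 60 min RT; + SOS/3 mM GTP. G12C 3/40 nM, WT 1/40, NRAS 1.25/40 nM RAS/SOS, 60 min; G12V 1.25/160 nM, 90 min. Normalized to DMSO and saturating inhibitor; 4PL fit.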

MKN-1 cells = assay: Cellular phospho-ERK assay, MKN-1 cells (amplified wild-type KRAS); assay type: cell-based; conditions: Homo sapiens, read-out: MKN1 pERK IC50
In short: (§2)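 p-ERK/total ERK ratio, measured by AlphaLISA SureFire Ultra multiplex in lysates, was fitted to a 4-parameter logistic model for IC50. Compound exposure was 2 h at 37° C, 5% CO2, 10-point 1:3 dilutions from 30 μM final, on cells plated the previous night.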

KRAS-G12D = KRAS-G12D (Homo sapiens, UniProt P01116, G12D); assay: SOS-catalyzed nucleotide exchange assay (Procedure A, TR-FRET), KRAS-G12D; assay type: biochemical
Chain of KRAS-G12D (P01116 with tags, fused parts or gaps isoform P01116-2 G12D): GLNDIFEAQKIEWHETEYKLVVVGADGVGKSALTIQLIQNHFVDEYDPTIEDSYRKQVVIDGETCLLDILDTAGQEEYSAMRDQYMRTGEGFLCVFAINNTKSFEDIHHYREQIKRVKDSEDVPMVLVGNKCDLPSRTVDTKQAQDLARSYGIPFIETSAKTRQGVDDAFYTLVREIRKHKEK
In short: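 Signal ratio (520/495 nm, excitation 340 nm) reports Bodipy-GDP retention on biotinylated RAS after SOS-catalyzed exchange with 3 mM GTP. SOS was 40 nM, except 160 nM for G12V. Room-temperature exchange lasted 60 min (90 min for G12V), following a 60 min compound preincubation.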

SW620 cells = assay: Cellular phospho-ERK assay, SW620 cells (homozygous KRAS-G12V); assay type: cell-based; conditions: Homo sapiens, read-out: SW620 pERK IC50
In short: as §2

KRAS-WT = KRAS-WT (Homo sapiens, UniProt P01116); assay: SOS-catalyzed nucleotide exchange assay (Procedure A, TR-FRET), KRAS-WT; assay type: biochemical
Chain of KRAS-WT (P01116 with tags, fused parts or gaps isoform P01116-2): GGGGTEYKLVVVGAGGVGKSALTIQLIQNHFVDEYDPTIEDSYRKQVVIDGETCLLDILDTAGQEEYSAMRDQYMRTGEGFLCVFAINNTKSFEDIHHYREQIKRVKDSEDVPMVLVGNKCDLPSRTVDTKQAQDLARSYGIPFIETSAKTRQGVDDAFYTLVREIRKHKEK
In short: as §1

AsPC-1 cells = assay: Cellular phospho-ERK assay, AsPC-1 cells (homozygous KRAS-G12D); assay type: cell-based; conditions: Homo sapiens, read-out: AsPC1 pERK IC50
In short: as §2

[1] = nucleotide exchange, read-out: KRAS G12V GNE IC50
[2] = nucleotide exchange, read-out: KRAS G12D GNE IC50
[3] = SW-620, 2 hours compound incubation
[4] = nucleotide exchange, read-out: KRAS WT GNE IC50
[5] = ASPC1, 2 h, 2 hours compound incubation
[6] = amplified wild-type KRAS, 2 hours

Chain of KRAS-G12V (P01116 with tags, fused parts or gaps isoform P01116-2 G12V): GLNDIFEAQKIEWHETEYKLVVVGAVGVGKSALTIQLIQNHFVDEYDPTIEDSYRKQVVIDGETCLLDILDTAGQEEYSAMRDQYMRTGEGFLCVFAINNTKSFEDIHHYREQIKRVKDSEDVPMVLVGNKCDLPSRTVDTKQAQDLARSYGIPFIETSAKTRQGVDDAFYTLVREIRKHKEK

SMILES	IC50 (KRAS-G12V; [1])	IC50 (MKN-1 cells; 2 hours compound incubation)	IC50 (KRAS-G12D; [2])	IC50 (SW620 cells; [3])	IC50 (KRAS-WT; [4])	IC50 (AsPC-1 cells; [5])	IC50 (MKN-1 cells; [6])	IC50 (SW620 cells; SW-620, KRAS-G12V, 2 hours)	IC50 (AsPC-1 cells; ASPC1, 2 h, KRAS-G12D, 2 hours)	IC50 (KRAS-G12V; KRAS G12V GNE IC50, nucleotide exchange)	IC50 (KRAS-G12D; KRAS G12D GNE IC50, nucleotide exchange)	IC50 (KRAS-WT; KRAS WT GNE IC50, nucleotide exchange)	IC50 (AsPC-1 cells; ASPC1, KRAS-G12D, 2 hours)
CO[C@H]1CN2CCC[C@@]2(COc2nc(N3CCOC[C@@](C)(O)C3)c3c(n2)sc2c(-c4c(C5CC5)c(Cl)cc5[nH]ncc45)nccc23)C1 [Ex-229, (6S)-4-(8-(6-chloro-5-cyclopropyl-1H-indazol-4-yl)-2-(((2R,7aS)-2-meth-oxytetrahydro-1H-pyrrolizin-7a(5H)-yl)methoxy)pyrido [4′,3′:4,5]thieno[2,3-d]pyrimidin-4-yl)-6-methyl-1,4-oxaze-pan-6-ol]	19.1 nM	51.9 nM	6.54 nM	38.2 nM	22.5 nM	109 nM	–	–	–	–	–	–	–
CC1(F)CCN(C[C@@]2(COc3nc(N4CCOC[C@@](C)(O)C4)c4c(n3)sc3c(-c5c(C6(F)CC6)c(Cl)cc6[nH]ncc56)nccc34)CC2(F)F)CC1 [Ex-232, (6S)-4-(8-(6-chloro-5-(1-fluorocyclopropyl)-1H-indazol-4-yl)-2-(((R)-2,2-difluoro-1-((4-fluoro-4-methylpiperidin-1-yl)methyl)cyclopropyl)metho-xy)pyrido[4′,3′:4,5]thieno[2,3-d]pyrimidin-4-yl)-6-methyl-1,4-oxazepan-6-ol]	197 nM	84.2 nM	104 nM	117 nM	762 nM	188 nM	–	–	–	–	–	–	–
C[C@@]1(O)COCCN(c2nc(OC[C@@]34CCCN3CC(=C(F)F)C4)nc3sc4c(-c5c(C6(F)CC6)c(Cl)cc6[nH]ncc56)nccc4c23)C1 [Ex-272, (6S)-4-(8-(6-chloro-5-(1-fluorocyclopropyl)-1H-indazol-4-yl)-2-(((S)-2-(difluoromethylene)tetra-hydro-1H-pyrrolizin-7a(5H)-yl)methoxy)pyri-do[4′,3′:4,5]thi-eno[2,3-d]pyrimidin-4-yl)-6-methyl-1,4-oxazepan-6-ol]	19.4 nM	–	3.18 nM	–	29.3 nM	–	50.5 nM	29.4 nM	62.4 nM	–	–	–	–
C[C@@]1(O)COCCN(c2nc(OC[C@@]34CCCN3C[C@H](F)C4)nc3sc4c(-c5c(C6(F)CC6)c(C(F)(F)F)cc6[nH]ncc56)nncc4c23)C1 [Ex-283, (6S)-4-(8-(5-(1-fluorocyclopropyl)-6-(trifluoromethyl)-1H-indazol-4-yl)-2-(((2R,7aS)-2-fluorotetrahydro-1H-pyrrolizin-7a(5H)-yl)methoxy)pyrimido [5′,4′:4,5]thieno[2,3-d]pyridazin-4-yl)-6-methyl-1,4-oxazepan-6-ol]	15.4 nM	–	5.26 nM	–	14.5 nM	–	77.4 nM	41.5 nM	244 nM	–	–	–	–
C[C@@]1(O)COCCN(c2nc(OC[C@@]34CCCN3C[C@H](F)C4)nc3[se]c4c(-c5c(C6CC6)c(Cl)cc6[nH]ncc56)nccc4c23)C1 [Ex-289, (6S)-4-(8-(6-chloro-5-cyclopropyl-1H-indazol-4-yl)-2-(((2R,7aS)-2-fluorotetrahydro-1H-pyrrolizin-7a(5H)-yl)methoxy)pyri-do[4′,3′:4,5]seleno-pheno[2,3-d]pyrimidin-4-yl)-6-methyl-1,4-oxazepan-6-ol]	–	–	–	–	–	–	81.4 nM	64.6 nM	–	26.9 nM	6.97 nM	22.3 nM	103 nM
C[C@@]1(O)COCCN(c2nc(OC[C@@]34CCCN3C[C@H](F)C4)nc3c(F)c4c(-c5c(C6CC6)c(Cl)cc6[nH]ncc56)nccn4c23)C1 [Ex-305, (S)-4-(9-(6-chloro-5-cyclopropyl-1H-indazol-4-yl)-10-fluoro-2-(((2R,7aS)-2-fluorotetrahydro-1H-pyrrolizin-7a(5H)-yl)methoxy)pyrazino[1′,2′:1,5]pyrrolo[3,2-d]pyrimidin-4-yl)-6-methyl-1,4-oxazepan-6-ol]	23.8 nM	–	11.6 nM	–	37 nM	–	93 nM	54.7 nM	212 nM	–	–	–	–

The next lines start with results.

IC50 (KRAS-G12V; [1])	IC50 (MKN-1 cells; 2 hours compound incubation)	IC50 (KRAS-G12D; [2])	IC50 (SW620 cells; [3])	IC50 (KRAS-WT; [4])	IC50 (AsPC-1 cells; [5])	SMILES	IC50 (MKN-1 cells; [6])	IC50 (SW620 cells; SW-620, KRAS-G12V, 2 hours)	IC50 (AsPC-1 cells; ASPC1, 2 h, KRAS-G12D, 2 hours)	IC50 (KRAS-G12V; KRAS G12V GNE IC50, nucleotide exchange)	IC50 (KRAS-G12D; KRAS G12D GNE IC50, nucleotide exchange)	IC50 (KRAS-WT; KRAS WT GNE IC50, nucleotide exchange)	IC50 (AsPC-1 cells; ASPC1, KRAS-G12D, 2 hours)
11.4 nM	33.7 nM	1.85 nM	29.4 nM	8.2 nM	54.5 nM	C[C@@]1(O)COCCN(c2nc(OC[C@]3(CN4CCC4)CC3(F)F)nc3sc4c(-c5c(C6(F)CC6)c(Cl)cc6[nH]ncc56)nccc4c23)C1 [Ex-239, (6S)-4-(2-(((R)-1-(azetidin-1-ylmethyl)-2,2-difluorocyclopropyl)methoxy)-8-(6-chloro-5-(1-fluorocyclopropyl)-1H-indazol-4-yl)pyrido[4′,3:′4,5]thieno[2,3-d]pyrimidin-4-yl)-6-methyl-1,4-oxazepan-6-ol]	–	–	–	–	–	–	–
15.5 nM	36.3 nM	3.09 nM	42.8 nM	12.5 nM	45.7 nM	C[C@@]1(O)COCCN(c2nc(OC[C@]3(CN4CC5(CCOCC5)C4)CC3(F)F)nc3sc4c(-c5c(C6(F)CC6)c(Cl)cc6[nH]ncc56)nccc4c23)C1 [Ex-248, (6S)-4-(2-(((R)-1-((7-oxa-2-azaspiro[3.5]nonan-2-yl)methyl)-2,2-difluorocyclopropyl)methoxy)-8-(6-chloro-5-(1-fluorocyclopropyl)-1H-indazol-4-yl)pyrido[4′,3′:4,5]thieno[2,3-d]pyrimidin-4-y1)-6-methyl-1,4-oxazepan-6-ol]	–	–	–	–	–	–	–
26.7 nM	52.4 nM	4.44 nM	66.1 nM	22.2 nM	119 nM	C[C@@]1(O)COCCN(c2nc(OC[C@]3(CN4CCC5(CC5)C4)CC3(F)F)nc3sc4c(-c5c(C6(F)CC6)c(Cl)cc6[nH]ncc56)nccc4c23)C1 [Ex-262, (6S)-4-(2-(((R)-1-((5-azaspiro[2.4]heptan-5-yl)methyl)-2,2-difluorocyclopropyl)methoxy)-8-(6-chloro-5-(1-fluorocyclopropyl)-1H-indazol-4-yl)pyrido[4′,3′:4,5]thieno[2,3-d]pyrimidin-4-yl)-6-methyl-1,4-oxazepan-6-ol]	–	–	–	–	–	–	–
20 nM	90.1 nM	8.13 nM	84.5 nM	24.9 nM	182 nM	CN(C)C1COC2C[C@@]21COc1nc(N2CCOC[C@@](C)(O)C2)c2c(n1)sc1c(-c3c(C4(F)CC4)c(Cl)cc4[nH]ncc34)nccc12 (stereo partly drawn) [Ex-269, (6S)-4-(8-(6-chloro-5-(1-fluorocyclopropyl)-1H-indazol-4-yl)-2-((4-(dimethylamino)-2-oxabicyclo[3.1.0]hexan-5-yl)methoxy)pyri-do[4′,3′:4,5]thi-eno[2,3-d]pyrimidin-4-yl)-6-methyl-1,4-oxazepan-6-ol]	–	–	–	–	–	–	–
